# pKi: −log10 of the molar value.
# Target: PIM1 (Homo sapiens (Human), UniProt P11309)
# Assay: biochemical
# Assay type: biochemical
# Conditions: 20 pM PIM1, 1 μM FAM-peptide, 10 μM ATP, 90 minutes at room temperature; read-out: PIM1 LC3K (KI)
# Method: Reaction Buffer contained 10 mM HEPES, pH 7.2, 10 mM MgCl2, 0.01% Tween 20, 2 mM DTT. Termination Buffer contained 190 mM HEPES, pH 7.2, 0.015% Brij-35, 0.2% Coating Reagent 3 (Caliper Life Sciences, Hopkinton, Mass.), 20 mM EDTA. Separation Buffer contained 100 mM HEPES, pH 7.2, 0.015% Brij-35, 0.1% Coating Reagent 3, 1:200 Coating Reagent 8 (Caliper Life Sciences, Hopkinton, Mass.), 10 mM EDTA and 5% DMSO.
# PIM reactions were carried out in a final volume of 10 μL per well in a 384-well plate. […] After 90 minutes of incubation at room temperature, the phosphorylation reaction was stopped by the addition of 10 μL Termination Buffer. The product and substrate in each independent reaction were separated on a 12-sipper microfluidic chip (Caliper Life Sciences, Hopkinton, Mass.) run on a Caliper LC3000® (Caliper Life Sciences, Hopkinton, Mass.). The separation of product and substrate was optimized by choosing voltages and pressure using Caliper's Optimizer software (Hopkinton, Mass.). The separation conditions used a downstream voltage of −500V, an upstream voltage of −2150V, and a screening pressure of −1.2 psi. […] Substrate conversion was calculated from the electropherogram using HTS Well Analyzer software (Caliper Life Sciences, Hopkinton, Mass.). Ki values for the test compound were calculated.
# PIM1, sequence (P11309 whole entry): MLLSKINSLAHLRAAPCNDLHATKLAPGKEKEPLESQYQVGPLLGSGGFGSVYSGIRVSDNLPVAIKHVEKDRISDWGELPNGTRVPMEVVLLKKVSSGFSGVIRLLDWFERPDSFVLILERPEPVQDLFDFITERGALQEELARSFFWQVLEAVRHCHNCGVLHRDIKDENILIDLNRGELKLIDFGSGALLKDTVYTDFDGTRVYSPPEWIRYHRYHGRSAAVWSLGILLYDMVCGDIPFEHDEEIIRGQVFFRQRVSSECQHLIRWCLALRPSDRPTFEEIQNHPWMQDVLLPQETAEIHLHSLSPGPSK
row,pKi,SMILES
1,10.77,"CC(O)c1cc(F)c(-c2nc(C(=O)Nc3cnn(C)c3[C@@H]3CC[C@@H](N)[C@H](F)CO3)ccc2F)c(F)c1 (stereo partly drawn) [Example 207, N-(5-((2S,5R,6S)-5-amino-6-fluorooxepan-2-yl)-1-methyl-1H-pyrazol-4-yl)-6-(2,6-difluoro-4-(1-hydroxyethyl)phenyl)-5-fluoropicolinamide]"
2,10.92,"Cn1ncc(NC(=O)c2ccc(F)c(-c3c(F)cc(O)cc3F)n2)c1[C@@H]1CC[C@@H](N)[C@H](F)CO1 [Example 208, N-(5-((2S,5R,6S)-5-amino-6-fluorooxepan-2-yl)-1-methyl-1H-pyrazol-4-yl)-6-(2,6-difluoro-4-hydroxyphenyl)-5-fluoropicolinamide]"
3,10.80,"Cn1ncc(NC(=O)c2ccc(F)c(-c3c(F)cc(OCCO)cc3F)n2)c1[C@@H]1CC[C@@H](N)[C@H](F)CO1 [Example 209, N-(5-((2S,5R,6S)-5-Amino-6-fluorooxepan-2-yl)-1-methyl-1H-pyrazol-4-yl)-6-(2,6-difluoro-4-(2-hydroxyethoxy)phenyl)-5-fluoropicolinamide]"
4,10.28,"CC(O)c1cc(F)c(-c2nc(C(=O)Nc3cnn(C)c3[C@@H]3CC[C@@H](N)[C@@H](F)CO3)ccc2F)c(F)c1 (stereo partly drawn) [Example 210, N-(5-((2S,5R,6R)-5-amino-6-fluorooxepan-2-yl)-1-methyl-1H-pyrazol-4-yl)-6-(2,6-difluoro-4-(1-hydroxyethyl)phenyl)-5-fluoropicolinamide]"
5,10.43,"COC(C)c1cc(F)c(-c2nc(C(=O)Nc3cnn(C)c3[C@@H]3CC[C@@H](N)[C@@H](F)CO3)ccc2F)c(F)c1 (stereo partly drawn) [Example 211, N-(5-((2S,5R,6R)-5-amino-6-fluorooxepan-2-yl)-1-methyl-1H-pyrazol-4-yl)-6-(2,6-difluoro-4-(1-methoxyethyl)phenyl)-5-fluoropicolinamide]"
6,9.79,"Cn1ncc(NC(=O)c2ccc(F)c(-c3c(F)cc(C(O)(CO)CO)cc3F)n2)c1[C@@H]1CC[C@@H](N)[C@@H](F)CO1 [Example 212, N-(5-((2S,5R,6R)-5-amino-6-fluorooxepan-2-yl)-1-methyl-1H-pyrazol-4-yl)-6-(2,6-difluoro-4-(1,2,3-trihydroxypropan-2-yl)phenyl)-5-fluoropicolinamide]"
7,10.11,"COC(c1cc(F)c(-c2nc(C(=O)Nc3cnn(C)c3[C@@H]3CC[C@@H](N)[C@H](F)CO3)ccc2F)c(F)c1)C1CC1 (stereo partly drawn) [Example 213, N-(5-((2S,5R,6S)-5-amino-6-fluorooxepan-2-yl)-1-methyl-1H-pyrazol-4-yl)-6-(4-(cyclopropyl(methoxy)methyl)-2,6-difluorophenyl)-5-fluoropicolinamide]"
8,10.12,"Cn1ncc(NC(=O)c2ccc(F)c(-c3c(F)cc(C(CO)CO)cc3F)n2)c1[C@@H]1CC[C@@H](N)[C@H](F)CO1 [Example 214, N-(5-((2S,5R,6S)-5-amino-6-fluorooxepan-2-yl)-1-methyl-1H-pyrazol-4-yl)-6-(4-(1,3-dihydroxypropan-2-yl)-2,6-difluorophenyl)-5-fluoropicolinamide]"
9,11.12,"Cn1ncc(NC(=O)c2csc(-c3c(F)cc(C4(O)CCOC4)cc3F)n2)c1[C@@H]1CC[C@@H](N)[C@H](F)CO1 (stereo partly drawn) [Example 215, N-(5-((2S,5R,6S)-5-amino-6-fluorooxepan-2-yl)-1-methyl-1H-pyrazol-4-yl)-2-(2,6-difluoro-4-(3-hydroxytetrahydrofuran-3-yl)phenyl)thiazole-4-carboxamide]"
10,10.96,"Cn1ncc(NC(=O)c2csc(-c3c(F)cc(C4CCOC4)cc3F)n2)c1[C@@H]1CC[C@@H](N)[C@H](F)CO1 (stereo partly drawn) [Example 216, N-(5-((2S,5R,6S)-5-amino-6-fluorooxepan-2-yl)-1-methyl-1H-pyrazol-4-yl)-2-(2,6-difluoro-4-(tetrahydrofuran-3-yl)phenyl)thiazole-4-carboxamide]"
11,11.52,Cn1ncc(NC(=O)c2csc(-c3c(F)cc(O[C@@H]4CCOC4)cc3F)n2)c1[C@@H]1CC[C@@H](N)[C@H](F)CO1 [Example 217]
12,11.65,Cn1ncc(NC(=O)c2csc(-c3c(F)cc(O[C@H]4CCOC4)cc3F)n2)c1[C@@H]1CC[C@@H](N)[C@H](F)CO1 [Example 218]
13,10.30,"CO[C@H]1CO[C@H](c2c(NC(=O)c3nc(-c4cccc(F)c4F)sc3N)cnn2C)CC[C@H]1N [Example 219, 5-amino-N-(5-((2S,5R,6R)-5-amino-6-methoxyoxepan-2-yl)-1-methyl-1H-pyrazol-4-yl)-2-(2,3-difluorophenyl)thiazole-4-carboxamide]"
14,10.08,"CO[C@H]1CO[C@H](c2c(NC(=O)c3nc(-c4ccccc4C(F)(F)F)sc3N)cnn2C)CC[C@H]1N [Example 220, 5-amino-N-(5-((2S,5R,6R)-5-amino-6-methoxyoxepan-2-yl)-1-methyl-1H-pyrazol-4-yl)-2-(2-(trifluoromethyl)phenyl)thiazole-4-carboxamide]"
15,10.18,"CO[C@H]1CO[C@H](c2c(NC(=O)c3csc(-c4c(F)cccc4F)n3)cnn2C)CC[C@H]1N [Example 221, N-(5-((2S,5R,6R)-5-amino-6-methoxyoxepan-2-yl)-1-methyl-1H-pyrazol-4-yl)-2-(2,6-difluorophenyl)thiazole-4-carboxamide]"
16,9.79,"Cn1ncc(NC(=O)c2ccc(F)c(-c3cc(F)ccc3F)n2)c1[C@@H]1CC[C@@H](N)[C@H](F)CO1 [Example 222, N-(5-((2S,5R,6S)-5-amino-6-fluorooxepan-2-yl)-1-methyl-1H-pyrazol-4-yl)-6-(2,5-difluorophenyl)-5-fluoropicolinamide]"
17,10.08,"Cn1ncc(NC(=O)c2ccc(F)c(-c3cccc(F)c3F)n2)c1[C@@H]1CC[C@@H](N)[C@H](F)CO1 [Example 223, N-(5-((2S,5R,6S)-5-amino-6-fluorooxepan-2-yl)-1-methyl-1H-pyrazol-4-yl)-6-(2,3-difluorophenyl)-5-fluoropicolinamide]"
18,10.46,"Cn1ncc(NC(=O)c2csc(-c3c(F)cc(C4(O)COC4)cc3F)n2)c1[C@@H]1CC[C@@H](N)[C@H](F)CO1 [Example 224, N-(5-((2S,5R,6S)-5-amino-6-fluorooxepan-2-yl)-1-methyl-1H-pyrazol-4-yl)-2-(2,6-difluoro-4-(3-hydroxyoxetan-3-yl)phenyl)thiazole-4-carboxamide]"
19,10.55,"Cn1ncc(NC(=O)c2csc(-c3c(F)cc(C4(O)CC4)cc3F)n2)c1[C@@H]1CC[C@@H](N)[C@H](F)CO1 [Example 225, N-(5-((2S,5R,6S)-5-amino-6-fluorooxepan-2-yl)-1-methyl-1H-pyrazol-4-yl)-2-(2,6-difluoro-4-(1-hydroxycyclopropyl)phenyl)thiazole-4-carboxamide]"
20,10.44,"COc1ccc(-c2nc(C(=O)Nc3cnn(C)c3[C@@H]3CC[C@@H](N)[C@H](F)CO3)ccc2F)c(F)c1 [Example 226, N-(5-((2S,5R,6S)-5-amino-6-fluorooxepan-2-yl)-1-methyl-1H-pyrazol-4-yl)-5-fluoro-6-(2-fluoro-4-methoxyphenyl)picolinamide]"
21,9.24,"Cn1ncc(NC(=O)c2ccc(F)c(-c3cccc(F)c3Cl)n2)c1[C@@H]1CC[C@@H](N)[C@H](F)CO1 [Example 227, N-(5-((2S,5R,6S)-5-amino-6-fluorooxepan-2-yl)-1-methyl-1H-pyrazol-4-yl)-6-(2-chloro-3-fluorophenyl)-5-fluoropicolinamide]"
22,9.91,"Cn1ncc(NC(=O)c2csc(-c3cnn(CC(C)(C)O)c3)n2)c1[C@@H]1CC[C@@H](N)[C@H](F)CO1 [Example 228, N-(5-((2S,5R,6S)-5-amino-6-fluorooxepan-2-yl)-1-methyl-1H-pyrazol-4-yl)-2-(1-(2-hydroxy-2-methylpropyl)-1H-pyrazol-4-yl)thiazole-4-carboxamide]"
23,12.00,"COc1ccc(F)c(-c2nc(C(=O)Nc3cnn(C)c3[C@@H]3CC[C@@H](N)[C@H](F)CO3)cs2)c1F [Example 229, N-(5-((2S,5R,6S)-5-amino-6-fluorooxepan-2-yl)-1-methyl-1H-pyrazol-4-yl)-2-(2,6-difluoro-3-methoxyphenyl)thiazole-4-carboxamide]"
24,10.51,"Cn1ncc(NC(=O)c2csc(-c3c(F)ccc(F)c3F)n2)c1[C@@H]1CC[C@@H](N)[C@@H](F)CO1 [Example 230, N-(5-((2S,5R,6R)-5-amino-6-fluorooxepan-2-yl)-1-methyl-1H-pyrazol-4-yl)-2-(2,3,6-trifluorophenyl)thiazole-4-carboxamide]"
25,10.35,"Cc1cccnc1-c1nc(C(=O)Nc2cnn(C)c2[C@@H]2CC[C@@H](N)[C@H](F)CO2)cs1 [Example 231, N-(5-((2S,5R,6S)-5-amino-6-fluorooxepan-2-yl)-1-methyl-1H-pyrazol-4-yl)-2-(3-methylpyridin-2-yl)thiazole-4-carboxamide]"
26,8.95,"COc1ncccc1-c1nc(C(=O)Nc2cnn(C)c2[C@@H]2CC[C@@H](N)[C@H](F)CO2)cs1 [Example 232, N-(5-((2S,5R,6S)-5-amino-6-fluorooxepan-2-yl)-1-methyl-1H-pyrazol-4-yl)-2-(2-methoxypyridin-3-yl)thiazole-4-carboxamide]"
27,9.99,"Cn1ncc(NC(=O)c2csc(-c3ccc[nH]c3=O)n2)c1[C@@H]1CC[C@@H](N)[C@H](F)CO1 [Example 233, N-(5-((2S,5R,6S)-5-amino-6-fluorooxepan-2-yl)-1-methyl-1H-pyrazol-4-yl)-2-(2-oxo-1,2-dihydropyridin-3-yl)thiazole-4-carboxamide]"
28,10.17,"Cc1noc(C)c1-c1nc(C(=O)Nc2cnn(C)c2[C@@H]2CC[C@@H](N)[C@H](F)CO2)cs1 [Example 234, N-(5-((2S,5R,6S)-5-amino-6-fluorooxepan-2-yl)-1-methyl-1H-pyrazol-4-yl)-2-(3,5-dimethylisoxazol-4-yl)thiazole-4-carboxamide]"
29,10.17,"Cn1ncc(NC(=O)c2csc(-c3cnn(C4CC4)c3)n2)c1[C@@H]1CC[C@@H](N)[C@H](F)CO1 [Example 235, N-(5-((2S,5R,6S)-5-amino-6-fluorooxepan-2-yl)-1-methyl-1H-pyrazol-4-yl)-2-(1-cyclopropyl-1H-pyrazol-4-yl)thiazole-4-carboxamide]"
30,9.59,"Cn1ncc(NC(=O)c2csc(-c3cc(F)cc(F)c3F)n2)c1[C@@H]1CC[C@@H](N)[C@H](F)CO1 [Example 236, N-(5-((2S,5R,6S)-5-amino-6-fluorooxepan-2-yl)-1-methyl-1H-pyrazol-4-yl)-2-(2,3,5-trifluorophenyl)thiazole-4-carboxamide]"

# Source: patent publication US9328106B2, “Cyclic ether pyrazol-4-yl-heterocyclyl-carboxamide compounds and methods of use” (Genentech, Inc., priority 2012, dated 2016)
